Results from patent US10781158B2, “Methods of protecting an organ using tetrahydrocurcumin and phosphatidylcholine” (Bhupinder Singh, priority 2014, dated 2020).
Where “and” joins values, the source holds several entries; their conditions need not be identical. Equal values may be shown once.

Assays:
5/6 nephrectomy rats [1] = assay: Plasma C-reactive protein (CRP, inflammation) in CKD rats; type: in vivo, Sprague-Dawley rats
Description: (§1) For induction of CKD via nephron mass reduction, Sprague-Dawley rats underwent partial left nephrectomy followed by total right nephrectomy one week later. CKD rats were then randomized to 1% THC diet with polyenylphosphatidylcholine (PPC, 3 g/1000 kcal) vs. regular chow. […] Tail blood pressure measurement and 24-hour urine collection were done within a week of study termination. After 9 weeks on special diet, blood and kidneys were collected for biochemical and histologic analyses.
(§2) After 24 hours the rats were analyzed for proteinuria, Galectin-3, and C-reactive protein. Galectin-3 is a marker for cardiac fibrosis, and C-reactive protein is correlated with inflammation. Furthermore, a blood urea nitrogen test (BUN) was carried out with a creatinine and creatinine clearance blood test to evaluate the kidney functions and to look for nephrotoxicity.

5/6 nephrectomy rats [2] = assay: Kidney fibrosis, image quantitative analysis of Trichrome stained kidney slides in CKD rats; type: in vivo, Sprague-Dawley rats; conditions: for Kidney slides Trichrome stain, Relative % area fibrosis: Table 10, relative to CTL Ave 1
Description: as §1
(§3) The experimental groups included healthy controls, CTL n=5, non-treated CKD, n=6 and CKD/THC n=6. At time of randomization to regular chow vs. THC diet, average blood urea nitrogen (BUN) was similar between the CKD groups (63.5+10.5 vs. 66+16.5 mg/dL).

5/6 nephrectomy rats [3] = assay: Blood urea nitrogen (BUN), creatinine and creatinine clearance blood tests (kidney function) in CKD rats; type: in vivo, Sprague-Dawley rats; design: Change in BUN: unit not given here
Description: as §1, §2
The blood urea nitrogen test (BUN) is primarily used with the creatinine test to evaluate kidney function and to help diagnose kidney disease. […] Therefore the pharmaceutical formulations comprising tetrahydrocurcumin with or without curcumin can be used to treat hypertension.

5/6 nephrectomy rats [4] = assay: Tail blood pressure measurement in 5/6 nephrectomy CKD rats; type: in vivo, Sprague-Dawley rats; design: Diastolic tail BP: unit not given here
Description: as §1
Rats were induced to have chronic kidney disease via nephron mass reduction, Sprague-Dawley rats underwent partial left nephrectomy followed by total right nephrectomy one week later. CKD rats were then randomized to 1% THC diet with polyenylphosphatidylcholine (PPC, 3 g/1000 kcal) vs. regular chow. The rats were then administered a dose of Buprenex, a narcotic, that can cause kidney damage.
(§4) After inducing chronic kidney disease, the rats were then treated with a pharmaceutical formulation comprising tetrahydrocurcumin, or with a pharmaceutical formulation that had both tetrahydrocurcumin and curcumin. The control group consisted of five rats, ([…]), the rats with CKD (rat number 4, 15, 20, 23, 25, 31), rats with chronic kidney disease treated with tetrahydrocurcumin (rat number 8, 11, 12, 14, 19, 21, 18 and 27) and rats treated with a combination of tetrahydrocurcumin and curcumin (rat number 1, 2, 16, 24, 28, 7, 17, 29 and 30). The measurements for the average BUN, blood pressure, body weight, delta BUN, Hgb, and Heart weight/body weight for the four groups are shown in FIGS. 2A-2G.

[5] = at acidic and at physiological pH; cited from earlier work
[6] = previously shown; cited from earlier work
5/6 nephrectomy rats [7] = assay: Galectin-3 (marker for cardiac fibrosis) in CKD rats; type: in vivo, Sprague-Dawley rats
Experimental: as §2

[8] = high dosages; cited from earlier work
5/6 nephrectomy rats [9] = assay: Heart weight normalized to body weight (cardiac hypertrophy) in CKD rats; type: in vivo, Sprague-Dawley rats
Experimental: as §3, §4

5/6 nephrectomy rats [10] = assay: Proteinuria, 24-hour urine collection (total protein, urine protein/creatinine) in CKD rats; type: in vivo, Sprague-Dawley rats
Description: as §1, §2

[11] = group AVE, CKD rats treated with THC
[12] = individual rats (Rat#), CKD rats treated with THC
[13] = Table 1, CKD/THC group n = 6, mean ± S.D.
[14] = Table 4, group AVE (THC 8 rats, THC/curcumin 9 rats)
[15] = Table 7, individual CKD rats, incl. rats 22 and 26
[16] = Table 1, CKD/THC group n = 6, 1% THC diet with PPC, 9 weeks, mean ± S.D.

COc1cc(CCC(=O)CC(=O)CCc2ccc(O)c(OC)c2)ccc1O [THC, tetrahydrocurcumin]
CRP (5/6 nephrectomy rats [1]; Table 3, individual CKD rats): 2.53 mg/mL and 3.22 mg/mL and 2.15 mg/mL and 4.38 mg/mL and 2.70 mg/mL and 3.43 mg/mL and 2.36 mg/mL and 1.19 mg/mL and 2.57 mg/mL | CRP (5/6 nephrectomy rats [1]; Table 6, group AVE): 2.92 mg/mL | CRP (5/6 nephrectomy rats [1]; Table 6, individual CKD rats): 2.53 mg/mL and 3.22 mg/mL and 2.15 mg/mL and 4.38 mg/mL and 3.43 mg/mL and 2.36 mg/mL and 2.70 mg/mL and 2.57 mg/mL | CRP (5/6 nephrectomy rats [1]; [11]): 2.71 mg/mL | CRP (5/6 nephrectomy rats [1]; [12]): 2.53 mg/mL and 3.22 mg/mL and 2.15 mg/mL and 3.43 mg/mL and 2.36 mg/mL and 2.57 mg/mL | Kidney fibrosis from Trichrome stained slides: relative % area (5/6 nephrectomy rats [2]; Table 1, CKD/THC group n = 6, mean ± S.D., CTL = 1): 1.16 ± 0.24 relative % area | Kidney slides Trichrome stain, Relative % area fibrosis (5/6 nephrectomy rats [2]; group Ave): 1.1551 | Kidney slides Trichrome stain, Relative % area fibrosis (5/6 nephrectomy rats [2]; individual kidneys): 1.396 and 1.321 and 1.345 and 0.8958 and 1.146 and 0.8269 | BUN lower at termination compared to the non-treated CKD group (5/6 nephrectomy rats [3]; CKD/THC group, 1% THC diet with PPC, 9 weeks, significantly lower): about 40% | BUN at termination (5/6 nephrectomy rats [3]; [13]): 52.1 ± 19.1 mg/dL | Plasma creatinine (5/6 nephrectomy rats [3]; [13]): 1.04 ± 0.22 mg/dL | Terminal BUN (5/6 nephrectomy rats [3]; Table 3, individual CKD rats): 44.9 mg/dL and 60.3 mg/dL and 80.6 mg/dL and 107.7 mg/dL and 69.9 mg/dL and 32.1 mg/dL and 32.6 mg/dL and 201.8 mg/dL and 62.3 mg/dL | Terminal Cr (5/6 nephrectomy rats [3]; Table 3, individual CKD rats): 0.76 mg/dL and 1.28 mg/dL and 1.25 mg/dL and 1.48 mg/dL and 1.19 mg/dL and 1.13 mg/dL and 1.01 mg/dL and 2.30 mg/dL and 0.81 mg/dL | CrCL (5/6 nephrectomy rats [3]; Table 3, individual CKD rats, creatinine clearance): 3.71 mL/min/kg and 1.90 mL/min/kg and 2.56 mL/min/kg and 2.27 mL/min/kg and 3.46 mL/min/kg and 2.91 mL/min/kg | Change in BUN (5/6 nephrectomy rats [3]; [14]): −6.0 | Terminal BUN (5/6 nephrectomy rats [3]; [14]): 61.3 mg/dL | Terminal BUN (5/6 nephrectomy rats [3]; Table 4, individual CKD rats): 44.9 mg/dL and 60.3 mg/dL and 80.6 mg/dL and 107.7 mg/dL and 32.1 mg/dL and 32.6 mg/dL and 69.9 mg/dL and 62.3 mg/dL | Change in BUN (5/6 nephrectomy rats [3]; Table 4, individual CKD rats, terminal minus randomization): −13.6 and −6.2 and −15.9 and 31.6 and −28.7 and −14.7 and 3.4 and −4.3 | CrCL (5/6 nephrectomy rats [3]; Table 6, group AVE): 2.80 mL/min/kg | Terminal Cr (5/6 nephrectomy rats [3]; Table 6, group AVE): 1.11 mg/dL | Terminal Cr (5/6 nephrectomy rats [3]; Table 6, individual CKD rats): 0.76 mg/dL and 1.28 mg/dL and 1.25 mg/dL and 1.48 mg/dL and 1.13 mg/dL and 1.01 mg/dL and 1.19 mg/dL and 0.81 mg/dL | CrCL (5/6 nephrectomy rats [3]; Table 6, individual CKD rats, creatinine clearance): 3.71 mL/min/kg and 1.90 mL/min/kg and 2.56 mL/min/kg and 2.27 mL/min/kg and 3.46 mL/min/kg and 2.91 mL/min/kg | Terminal BUN (5/6 nephrectomy rats [3]; [15]): 44.9 mg/dL and 60.3 mg/dL and 80.6 mg/dL and 107.7 mg/dL and 69.9 mg/dL and 32.1 mg/dL and 32.6 mg/dL and 201.8 mg/dL and 62.3 mg/dL | Terminal Cr (5/6 nephrectomy rats [3]; [15]): 0.8 mg/dL (2×) and 1.3 mg/dL and 1.2 mg/dL (2×) and 1.5 mg/dL and 1.1 mg/dL and 1.0 mg/dL and 2.3 mg/dL | Change in BUN (5/6 nephrectomy rats [3]; Table 8, group AVE of 6 rats): −13.9 | Terminal BUN (5/6 nephrectomy rats [3]; Table 8, group AVE of 6 rats): 52.1 mg/dL | Change in BUN (5/6 nephrectomy rats [3]; Table 8, individual CKD rats): −13.6 and −6.2 and −15.9 and −28.7 and −14.7 and −4.3 | Terminal BUN (5/6 nephrectomy rats [3]; Table 8, individual CKD rats): 44.9 mg/dL and 60.3 mg/dL and 80.6 mg/dL and 32.1 mg/dL and 32.6 mg/dL and 62.3 mg/dL | CrCL (5/6 nephrectomy rats [3]; [11]): 2.91 mL/min/kg | Terminal sCr (5/6 nephrectomy rats [3]; [11]): 1.04 mg/dL | CrCL (5/6 nephrectomy rats [3]; [12]): 3.71 mL/min/kg and 1.90 mL/min/kg and 2.56 mL/min/kg and 3.46 mL/min/kg and 2.91 mL/min/kg | Diastolic blood pressure (5/6 nephrectomy rats [4]; [16]): 75.8 ± 12.8 mmHg | Systolic blood pressure (5/6 nephrectomy rats [4]; [16]): 116.5 ± 11.1 mmHg | Diastolic tail BP (5/6 nephrectomy rats [4]; Table 5, group AVE): 76.3 | Systolic tail BP (5/6 nephrectomy rats [4]; Table 5, group AVE): 117.4 mmHg | Diastolic tail BP (5/6 nephrectomy rats [4]; Table 5, individual CKD rats): 95 and 69 and 60 and 78 and 81 and 67 and 77 and 83 | Systolic tail BP (5/6 nephrectomy rats [4]; Table 5, individual CKD rats): 132 mmHg and 103 mmHg and 124 mmHg (2×) and 116 mmHg and 113 mmHg and 106 mmHg and 121 mmHg | Diastolic tail BP (5/6 nephrectomy rats [4]; [11]): 75.8 | Diastolic tail BP (5/6 nephrectomy rats [4]; individual rats (Rat#), 5/6 nephrectomy CKD rats treated with THC): 95 and 69 and 60 and 81 and 67 and 83 | Solubility in water [5]: poor solubility | Increase of plasma levels on co-administration with a lipid carrier such as PPC [6]: 5 fold | Galectin-3 (5/6 nephrectomy rats [7]; Table 3, individual CKD rats): 285.96 ng/mL and 450.48 ng/mL and 436.37 ng/mL and 768.79 ng/mL and 273.14 ng/mL and 182.38 ng/mL | Galectin-3 (5/6 nephrectomy rats [7]; Table 6, group AVE): 442.95 ng/mL | Galectin-3 (5/6 nephrectomy rats [7]; Table 6, individual CKD rats): 285.96 ng/mL and 450.48 ng/mL and 436.37 ng/mL and 768.79 ng/mL and 273.14 ng/mL | Galectin-3 (5/6 nephrectomy rats [7]; [11]): 390.94 ng/mL | Galectin-3 (5/6 nephrectomy rats [7]; [12]): 285.96 ng/mL and 450.48 ng/mL and 436.37 ng/mL | Dosage at which relatively safe [8]: 80 mgs/kg body weight | Heart wet weight normalized to body weight (5/6 nephrectomy rats [9]; [13]): 3.89 ± 0.61 g/kg | Heart wt (5/6 nephrectomy rats [9]; [14]): 1.068 g | Heart wt/body wt (5/6 nephrectomy rats [9]; [14]): 4.16 g/kg | Heart wt (5/6 nephrectomy rats [9]; Table 4, individual CKD rats): 1.169 g and 0.972 g and 1.165 g and 1.035 g and 0.854 g and 0.830 g and 1.530 g and 0.989 g | Heart wt/body wt (5/6 nephrectomy rats [9]; Table 4, individual CKD rats): 4.68 g/kg and 3.61 g/kg and 4.59 g/kg and 4.33 g/kg and 3.42 g/kg and 3.22 g/kg and 5.63 g/kg and 3.80 g/kg | Heart wt (5/6 nephrectomy rats [9]; Table 8, group AVE of 6 rats): 0.997 g | Heart wt/body wt (5/6 nephrectomy rats [9]; Table 8, group AVE of 6 rats): 3.89 g/kg | Heart wt (5/6 nephrectomy rats [9]; Table 8, individual CKD rats): 1.169 g and 0.972 g and 1.165 g and 0.854 g and 0.830 g and 0.989 g | Heart wt/body wt (5/6 nephrectomy rats [9]; Table 8, individual CKD rats): 4.68 g/kg and 3.61 g/kg and 4.59 g/kg and 3.42 g/kg and 3.22 g/kg and 3.80 g/kg | Proteinuria decreased compared to non-treated CKD animals (5/6 nephrectomy rats [10]; CKD/THC group, significantly decreased): ~50% | Urine protein/creatinine (5/6 nephrectomy rats [10]; [13]): 47.91 ± 15.42 mg/g | 24 hr total proteinuria (5/6 nephrectomy rats [10]; Table 3, individual CKD rats): 638.5 mg and 612.7 mg and 355.6 mg and 537.7 mg and 613.8 mg and 410.1 mg | Uprot/Cr ratio (5/6 nephrectomy rats [10]; Table 3, individual CKD rats): 63.18 mg/g and 64.86 mg/g and 30.56 mg/g and 46.32 mg/g and 43.50 mg/g and 37.43 mg/g | 24 hr total proteinuria (5/6 nephrectomy rats [10]; Table 5, group AVE): 528.07 mg | 24 hr total proteinuria (5/6 nephrectomy rats [10]; Table 5, individual CKD rats): 638.50 mg and 612.75 mg and 355.61 mg and 537.69 mg and 613.82 mg and 410.08 mg | 24 hr total proteinuria (5/6 nephrectomy rats [10]; [11]): 526.15 mg | Uprot/Cr ratio (5/6 nephrectomy rats [10]; [11]): 47.91 mg/g | 24 hr total proteinuria (5/6 nephrectomy rats [10]; [12]): 638.50 mg and 612.75 mg and 355.61 mg and 613.82 mg and 410.08 mg | Uprot/Cr ratio (5/6 nephrectomy rats [10]; [12]): 63.18 mg/g and 64.86 mg/g and 30.56 mg/g and 43.50 mg/g and 37.43 mg/g
